According to ChEMBL document CHEMBL1157046, “QSAR modeling of taxane analogues against colon cancer” (Eur J Med Chem, 2010):

Test system: HT-29
Assay: Cytotoxicity against human HT-29 cells
Type: functional, cell-based

| Structure (SMILES) | IC50 |
| --- | --- |
| CC(=O)O[C@@]12CO[C@@H]1C[C@H](O)[C@@]1(C)C(=O)[C@H](O)C3=C(C)[C@@H](OC(=O)[C@H](O)[C@@H](NC(=O)C(C)(C)C)c4ccco4)[C@@H]4OC(=O)O[C@]4([C@@H](OC(=O)c4ccccc4)[C@H]21)C3(C)C | 0.603 nM |
| CC(=O)O[C@H]1C(=O)[C@@]2(C)[C@H]([C@H](OC(=O)c3ccccc3)[C@]34OC(=O)O[C@H]3[C@H](OC(=O)[C@H](O)[C@@H](NC(=O)C(C)(C)C)c3ccco3)C(C)=C1C4(C)C)[C@]1(OC(C)=O)CO[C@@H]1C[C@@H]2O | 0.603 nM |
| CC(=O)O[C@@]12CO[C@@H]1C[C@H](O)[C@@]1(C)C(=O)[C@H](O)C3=C(C)[C@@H](OC(=O)[C@H](O)[C@H](C=C(C)C)NC(=O)C(C)(C)C)[C@@H]4OC(=O)O[C@]4([C@@H](OC(=O)c4ccccc4)[C@H]21)C3(C)C | 0.501 nM |
| CC(=O)O[C@H]1C(=O)[C@@]2(C)[C@H]([C@H](OC(=O)c3ccccc3)[C@]34OC(=O)O[C@H]3[C@H](OC(=O)[C@H](O)[C@H](C=C(C)C)NC(=O)C(C)(C)C)C(C)=C1C4(C)C)[C@]1(OC(C)=O)CO[C@@H]1C[C@@H]2O | 2.4 nM |
| CCC(=O)O[C@H]1C(=O)[C@@]2(C)[C@H]([C@H](OC(=O)c3ccccc3)[C@]34OC(=O)O[C@H]3[C@H](OC(=O)[C@H](O)[C@H](C=C(C)C)NC(=O)C(C)(C)C)C(C)=C1C4(C)C)[C@]1(OC(C)=O)CO[C@@H]1C[C@@H]2O | 0.603 nM |
| CC(=O)O[C@@]12CO[C@@H]1C[C@H](O)[C@@]1(C)C(=O)[C@H](OC(=O)C3CC3)C3=C(C)[C@@H](OC(=O)[C@H](O)[C@H](C=C(C)C)NC(=O)C(C)(C)C)[C@@H]4OC(=O)O[C@]4([C@@H](OC(=O)c4ccccc4)[C@H]21)C3(C)C | 1 nM |
| CC(=O)O[C@@]12CO[C@@H]1C[C@H](O)[C@@]1(C)C(=O)[C@H](OC(=O)N(C)C)C3=C(C)[C@@H](OC(=O)[C@H](O)[C@H](C=C(C)C)NC(=O)C(C)(C)C)[C@@H]4OC(=O)O[C@]4([C@@H](OC(=O)c4ccccc4)[C@H]21)C3(C)C | 1.2 nM |
| C/C=C/C(=O)O[C@H]1C(=O)[C@@]2(C)[C@H]([C@H](OC(=O)c3ccccc3)[C@]34OC(=O)O[C@H]3[C@H](OC(=O)[C@H](O)[C@H](C=C(C)C)NC(=O)C(C)(C)C)C(C)=C1C4(C)C)[C@]1(OC(C)=O)CO[C@@H]1C[C@@H]2O | 1.51 nM |
| COC(=O)O[C@H]1C(=O)[C@@]2(C)[C@H]([C@H](OC(=O)c3ccccc3)[C@]34OC(=O)O[C@H]3[C@H](OC(=O)[C@H](O)[C@H](C=C(C)C)NC(=O)C(C)(C)C)C(C)=C1C4(C)C)[C@]1(OC(C)=O)CO[C@@H]1C[C@@H]2O | 0.708 nM |
| C/C=C/[C@H](NC(=O)C(C)(C)C)[C@@H](O)C(=O)O[C@@H]1C(C)=C2[C@@H](O)C(=O)[C@@]3(C)[C@H]([C@H](OC(=O)c4ccccc4)[C@@]4(OC(=O)O[C@@H]14)C2(C)C)[C@]1(OC(C)=O)CO[C@@H]1C[C@@H]3O | 1.91 nM |
| CCCCCC(=O)N[C@@H](C=C(C)C)[C@@H](O)C(=O)O[C@@H]1C(C)=C2[C@@H](OC(=O)C3CC3)C(=O)[C@@]3(C)[C@H]([C@H](OC(=O)c4ccccc4)[C@@]4(OC(=O)O[C@@H]14)C2(C)C)[C@]1(OC(C)=O)CO[C@@H]1C[C@@H]3O | 15.8 nM |
| CCCCCC(=O)N[C@@H](C=C(C)C)[C@@H](O)C(=O)O[C@@H]1C(C)=C2[C@@H](OC(=O)N(C)C)C(=O)[C@@]3(C)[C@H]([C@H](OC(=O)c4ccccc4)[C@@]4(OC(=O)O[C@@H]14)C2(C)C)[C@]1(OC(C)=O)CO[C@@H]1C[C@@H]3O | 5.13 nM |
| C/C=C/C(=O)O[C@H]1C(=O)[C@@]2(C)[C@H]([C@H](OC(=O)c3ccccc3)[C@]34OC(=O)O[C@H]3[C@H](OC(=O)[C@H](O)[C@H](C=C(C)C)NC(=O)CCCCC)C(C)=C1C4(C)C)[C@]1(OC(C)=O)CO[C@@H]1C[C@@H]2O | 28.2 nM |
| CC(=O)O[C@@]12CO[C@@H]1C[C@H](O)[C@@]1(C)C(=O)[C@H](O)C3=C(C)[C@@H](OC(=O)[C@H](O)[C@H](CC(C)C)NC(=O)C(C)(C)C)[C@@H]4OC(=O)O[C@]4([C@@H](OC(=O)c4ccccc4)[C@H]21)C3(C)C | 4.17 nM |
| CC(=O)O[C@H]1C(=O)[C@@]2(C)[C@H]([C@H](OC(=O)c3ccccc3)[C@]34OC(=O)O[C@H]3[C@H](OC(=O)[C@H](O)[C@H](CC(C)C)NC(=O)C(C)(C)C)C(C)=C1C4(C)C)[C@]1(OC(C)=O)CO[C@@H]1C[C@@H]2O | 1.51 nM |
| CCC[C@H](NC(=O)C(C)(C)C)[C@@H](O)C(=O)O[C@@H]1C(C)=C2[C@@H](O)C(=O)[C@@]3(C)[C@H]([C@H](OC(=O)c4ccccc4)[C@@]4(OC(=O)O[C@@H]14)C2(C)C)[C@]1(OC(C)=O)CO[C@@H]1C[C@@H]3O | 3.8 nM |
| CCC[C@H](NC(=O)C(C)(C)C)[C@@H](O)C(=O)O[C@@H]1C(C)=C2[C@@H](OC(C)=O)C(=O)[C@@]3(C)[C@H]([C@H](OC(=O)c4ccccc4)[C@@]4(OC(=O)O[C@@H]14)C2(C)C)[C@]1(OC(C)=O)CO[C@@H]1C[C@@H]3O | 4.79 nM |
| C/C=C/[C@H](NC(=O)C(C)(C)C)[C@@H](O)C(=O)O[C@@H]1C(C)=C2[C@@H](OC(C)=O)C(=O)[C@@]3(C)[C@H]([C@H](OC(=O)c4ccccc4)[C@@]4(OC(=O)O[C@@H]14)C2(C)C)[C@]1(OC(C)=O)CO[C@@H]1C[C@@H]3O | 3.02 nM |
| CC(=O)O[C@@H]1C2=C(C)[C@@H](OC(=O)[C@H](O)[C@@H](NC(=O)c3ccc(C)cc3)c3ccccc3)C[C@@](O)([C@@H](OC(=O)c3ccccc3)[C@@H]3[C@]4(OC(C)=O)CO[C@@H]4C[C@H](O)[C@@]3(C)[C@H]1O)C2(C)C | 0.0138 nM |
| CC(=O)O[C@@H]1C2=C(C)[C@@H](OC(=O)[C@H](O)[C@@H](NC(=O)OC(C)(C)C)c3ccccc3)C[C@@](O)([C@@H](OC(=O)c3ccccc3)[C@@H]3[C@]4(OC(C)=O)CO[C@@H]4C[C@H](O)[C@@]3(C)[C@H]1O)C2(C)C | 0.000186 nM |
| CC(=O)O[C@@H]1C2=C(C)[C@@H](OC(=O)[C@H](O)[C@@H](NC(=O)CC(C)(C)C)c3ccccc3)C[C@@](O)([C@@H](OC(=O)c3ccccc3)[C@@H]3[C@]4(OC(C)=O)CO[C@@H]4C[C@H](O)[C@@]3(C)[C@H]1O)C2(C)C | 0.0105 nM |
| CC(=O)N[C@@H](c1ccccc1)[C@@H](O)C(=O)O[C@H]1C[C@@]2(O)[C@@H](OC(=O)c3ccccc3)[C@@H]3[C@]4(OC(C)=O)CO[C@@H]4C[C@H](O)[C@@]3(C)[C@@H](O)[C@H](OC(C)=O)C(=C1C)C2(C)C | 0.339 nM |
| CCC(C)(C)OC(=O)N[C@@H](c1ccccc1)[C@@H](O)C(=O)O[C@H]1C[C@@]2(O)[C@@H](OC(=O)c3ccccc3)[C@@H]3[C@]4(OC(C)=O)CO[C@@H]4C[C@H](O)[C@@]3(C)[C@@H](O)[C@H](OC(C)=O)C(=C1C)C2(C)C | 0.000776 nM |
| CC(=O)O[C@@H]1C2=C(C)[C@@H](OC(=O)[C@H](O)[C@@H](NC(=O)NC(C)(C)C)c3ccccc3)C[C@@](O)([C@@H](OC(=O)c3ccccc3)[C@@H]3[C@]4(OC(C)=O)CO[C@@H]4C[C@H](O)[C@@]3(C)[C@H]1O)C2(C)C | 0.00661 nM |
| CC(=O)O[C@@H]1C2=C(C)[C@@H](OC(=O)[C@H](O)[C@@H](NC(=O)OC(C)C)c3ccccc3)C[C@@](O)([C@@H](OC(=O)c3ccccc3)[C@@H]3[C@]4(OC(C)=O)CO[C@@H]4C[C@H](O)[C@@]3(C)[C@H]1O)C2(C)C | 0.000955 nM |
